# Laboratory results from US20250313820A1, “PEPTIDES WITH MULTIVALENT EFFECTS” (In2Cure AB, priority 2021, published 2025).
# Read-outs that look alike come from different tables or passages of the source. Marks after values point to notes of the source that are not given here. Where a SMILES comes first, the peptide text is derived from it. Bridges are numbered along the chain shown (N, C = ends). [ ]: non-standard residue; d: D form. S5 = C=CCCC[C@](C)(N)C(=O)O
# Key:
# erythrocytes (RBCs) = format: cell-based, human; conditions: for Hemolytic activity, lysed RBCs: 1 h
# Method: (§1) Fresh venous blood from healthy donors was collected in lepirudine tubes (50 μg mL-1). Then 50 μL of blood were transferred to round-bottom 96-wells plate containing 150 μL of peptides previously diluted in RPMI-1640—GlutaMAX-I without phenol red (Gibco). 1:4 diluted blood was used as control. 50 μL of blood mixed with 150 μl 5% Tween-20 were used as positive control. After 1 h incubation at 37° C. and 5% CO2, the plate was centrifuged at 800 g, 150 μL of each sample were transferred to a flat-bottom 96-wells plate and the absorbance at 450 nm was measured. The percentage of hemolysis was calculated following the formula reported below: […]
# To evaluate the hemolytic effect of the peptides on erythrocytes the blood was collected as reported above and centrifuged at 250 g for 10 min. Then plasma was discarded, and red blood cells were washed with 150 mM NaCl in 10 mM Tris pH 7.4 for three times. Next, the pellet was dilute 100 times with saline Tris buffer. 100 μL of this solution were added to round-bottom 96-wells plate containing 100 μL of peptides previously diluted in saline Tris buffer. After 1 h incubation at 37° C. and 5% CO2, the plate was centrifuged and the absorbance at 450 nm was measured, then the percentage of erythrocyte lysis was determined using formula reported above.
# (§2) Data shown are mean values±SEM obtained from at least four independent experiments all made in triplicate. For each experiment blood from a different donor was used.
# whole blood = format: cell-based, human; conditions: 1 h
# Method: as §1, §2
SMILES,"Hemolytic activity, lysed RBCs (erythrocytes (RBCs)) [%]","Hemolytic activity, lysed RBCs in whole blood (whole blood) [%]","hemolytic activity, RBCs or whole blood (heatmaps FIG. 4, FIG. 20a), in words (erythrocytes (RBCs))","Hemolytic activity, lysed RBCs (erythrocytes (RBCs); 50 μM) [%]","Hemolytic activity, lysed RBCs in whole blood (whole blood; 50 μM)"
"CC[C@H](C)[C@H](NC(=O)[C@H](Cc1c[nH]c2ccccc12)NC(=O)[C@H](CCCCN)NC(=O)[C@H](CCCCN)NC(=O)[C@H](CC(C)C)NC(=O)[C@H](CCCNC(=N)N)NC(=O)[C@H](Cc1ccccc1)NC(=O)[C@@H](NC(=O)[C@H](CCCNC(=N)N)NC(=O)[C@H](CCCNC(=N)N)NC(=O)[C@H](CCCNC(=N)N)NC(=O)[C@@H](N)CCCNC(=N)N)C(C)C)C(=O)N[C@@]1(C)CCCC=CCCC[C@@](C)(C(=O)N[C@@H](CCC(N)=O)C(=O)N[C@@H](Cc2ccccc2)C(=O)NCC(=O)N[C@@H](CCC(=O)O)C(=O)O)NC(=O)[C@H]([C@@H](C)CC)NC(=O)[C@H](C(C)C)NC(=O)[C@H](CCCCN)NC1=O [sRRRRVF18, RRRRVFRLKKWIX1KVIX2QFGE] (H-RRRRVFRLKKWI[S5]KVI[S5]QFGE-OH; staple 13-17)",64.9 ± 11.4,<1,,,
"CC[C@H](C)[C@H](NC(=O)[C@H](Cc1c[nH]c2ccccc12)NC(=O)[C@H](CCCCN)NC(=O)[C@H](CCCCN)NC(=O)[C@H](CC(C)C)NC(=O)[C@H](CCCNC(=N)N)NC(=O)[C@H](Cc1ccccc1)NC(=O)[C@@H](NC(=O)[C@@H](N)CCCCN)C(C)C)C(=O)N[C@@]1(C)CCCC=CCCC[C@@](C)(C(=O)N[C@@H](CCC(N)=O)C(=O)N[C@@H](Cc2ccccc2)C(=O)NCC(=O)N[C@@H](CCC(=O)O)C(=O)O)NC(=O)[C@H]([C@@H](C)CC)NC(=O)[C@H](C(C)C)NC(=O)[C@H](CCCCN)NC1=O [sKVF18, KVFRLKKWIXKVIXQFGE] (H-KVFRLKKWI[S5]KVI[S5]QFGE-OH; staple 10-14)",51.4 ± 4.9,<1,,,
"CC[C@H](C)[C@H](NC(=O)[C@H](Cc1c[nH]c2ccccc12)NC(=O)[C@H](CCCCN)NC(=O)[C@H](CCCCN)NC(=O)[C@H](CC(C)C)NC(=O)[C@H](CCCNC(=N)N)NC(=O)[C@H](Cc1ccccc1)NC(=O)[C@@H](NC(=O)[C@H](CCCNC(=N)N)NC(=O)[C@H](CCCNC(=N)N)NC(=O)[C@@H](N)CCCNC(=N)N)C(C)C)C(=O)N[C@@]1(C)CCCC=CCCC[C@@](C)(C(=O)N[C@@H](CCC(N)=O)C(=O)N[C@@H](Cc2ccccc2)C(=O)NCC(=O)N[C@@H](CCC(=O)O)C(=O)O)NC(=O)[C@H]([C@@H](C)CC)NC(=O)[C@H](C(C)C)NC(=O)[C@H](CCCCN)NC1=O [sRRRVF18, RRRVFRLKKWIX1KVIX2QFGE] (H-RRRVFRLKKWI[S5]KVI[S5]QFGE-OH; staple 12-16)",61.5 ± 6.2,<1,,,
"CC[C@H](C)[C@H](NC(=O)[C@H](Cc1c[nH]c2ccccc12)NC(=O)[C@H](CCCCN)NC(=O)[C@H](CCCCN)NC(=O)[C@H](CC(C)C)NC(=O)[C@H](CCCNC(=N)N)NC(=O)[C@H](Cc1ccccc1)NC(=O)[C@@H](NC(=O)[C@H](CCCCN)NC(=O)[C@@H](N)CCCCN)C(C)C)C(=O)N[C@@]1(C)CCCC=CCCC[C@@](C)(C(=O)N[C@@H](CCC(N)=O)C(=O)N[C@@H](Cc2ccccc2)C(=O)NCC(=O)N[C@@H](CCC(=O)O)C(=O)O)NC(=O)[C@H]([C@@H](C)CC)NC(=O)[C@H](C(C)C)NC(=O)[C@H](CCCCN)NC1=O [sKKVF18, KKVFRLKKWIX1KVIX2QFGE] (H-KKVFRLKKWI[S5]KVI[S5]QFGE-OH; staple 11-15)",27.8 ± 3.0,<1,,,
"CC[C@H](C)[C@H](NC(=O)[C@H](Cc1c[nH]c2ccccc12)NC(=O)[C@H](CCCCN)NC(=O)[C@H](CCCCN)NC(=O)[C@H](CC(C)C)NC(=O)[C@H](CCCNC(=N)N)NC(=O)[C@H](Cc1ccccc1)NC(=O)[C@@H](NC(=O)[C@H](CCCCN)NC(=O)[C@H](CCCCN)NC(=O)[C@H](CCCCN)NC(=O)[C@@H](N)CCCCN)C(C)C)C(=O)N[C@@]1(C)CCCC=CCCC[C@@](C)(C(=O)N[C@@H](CCC(N)=O)C(=O)N[C@@H](Cc2ccccc2)C(=O)NCC(=O)N[C@@H](CCC(=O)O)C(=O)O)NC(=O)[C@H]([C@@H](C)CC)NC(=O)[C@H](C(C)C)NC(=O)[C@H](CCCCN)NC1=O [sKKKKVF18, KKKKVFRLKKWIX1KVIX2QFGE] (H-KKKKVFRLKKWI[S5]KVI[S5]QFGE-OH; staple 13-17)",39.1 ± 5.4,<1,,,
"CC[C@H](C)[C@H](NC(=O)[C@H](Cc1c[nH]c2ccccc12)NC(=O)[C@H](CCCCN)NC(=O)[C@@H](N)CCCCN)C(=O)N[C@@]1(C)CCCC=CCCC[C@@](C)(C(=O)N[C@@H](CCC(N)=O)C(=O)N[C@@H](Cc2ccccc2)C(=O)NCC(=O)N[C@@H](CCC(=O)O)C(=O)O)NC(=O)[C@H]([C@@H](C)CC)NC(=O)[C@H](C(C)C)NC(=O)[C@H](CCCCN)NC1=O [sKKW13, KKWIX1KVIX2QFGE] (H-KKWI[S5]KVI[S5]QFGE-OH; staple 5-9)",,,low hemolytic activity,,
"CC[C@H](C)[C@H](NC(=O)[C@H](Cc1c[nH]c2ccccc12)NC(=O)[C@H](CCCCN)NC(=O)[C@H](CCCCN)NC(=O)[C@H](CC(C)C)NC(=O)[C@H](CCCNC(=N)N)NC(=O)[C@H](Cc1ccccc1)NC(=O)[C@@H](NC(=O)[C@H](CCCCN)NC(=O)[C@H](CCCCN)NC(=O)[C@@H](N)CCCCN)C(C)C)C(=O)N[C@@]1(C)CCCC=CCCC[C@@](C)(C(=O)N[C@@H](CCC(N)=O)C(=O)N[C@@H](Cc2ccccc2)C(=O)NCC(=O)N[C@@H](CCC(=O)O)C(=O)O)NC(=O)[C@H]([C@@H](C)CC)NC(=O)[C@H](C(C)C)NC(=O)[C@H](CCCCN)NC1=O [sKKKVF18, KKKVFRLKKWIX1KVIX2QFGE] (H-KKKVFRLKKWI[S5]KVI[S5]QFGE-OH; staple 12-16)",47.1 ± 8.1,<1,,,
"CC[C@H](C)[C@H](NC(=O)[C@H](Cc1c[nH]c2ccccc12)NC(=O)[C@H](CCCCN)NC(=O)[C@H](CCCCN)NC(=O)[C@H](CC(C)C)NC(=O)[C@H](CCCNC(=N)N)NC(=O)[C@H](Cc1ccccc1)NC(=O)[C@@H](NC(=O)[C@@H](N)CCCNC(=N)N)C(C)C)C(=O)N[C@@]1(C)CCCC=CCCC[C@@](C)(C(=O)N[C@@H](CCC(N)=O)C(=O)N[C@@H](Cc2ccccc2)C(=O)NCC(=O)N[C@@H](CCC(=O)O)C(=O)O)NC(=O)[C@H]([C@@H](C)CC)NC(=O)[C@H](C(C)C)NC(=O)[C@H](CCCCN)NC1=O [sRVF18, RVFRLKKWIXKVIXQFGE] (H-RVFRLKKWI[S5]KVI[S5]QFGE-OH; staple 10-14)",53.6 ± 3.8,<1,,,
"CC[C@H](C)[C@H](NC(=O)[C@H](Cc1c[nH]c2ccccc12)NC(=O)[C@H](CCCCN)NC(=O)[C@H](CCCCN)NC(=O)[C@H](CC(C)C)NC(=O)[C@H](CCCNC(=N)N)NC(=O)[C@H](Cc1ccccc1)NC(=O)[C@@H](NC(=O)[C@@H](N)Cc1cnc[nH]1)C(C)C)C(=O)N[C@@H](CCC(N)=O)C(=O)N[C@@H](CCCCN)C(=O)N[C@H](C(=O)N[C@H](C(=O)N[C@@H](CC(=O)O)C(=O)N[C@@H](CCC(N)=O)C(=O)N[C@@H](Cc1ccccc1)C(=O)NCC(=O)N[C@@H](CCC(=O)O)C(=O)O)[C@@H](C)CC)C(C)C [HVF18, reference compound] (H-HVFRLKKWIQKVIDQFGE-OH)",,,,28.5 ± 3.0,<1* %
"CC[C@H](C)[C@H](NC(=O)[C@H](Cc1c[nH]c2ccccc12)NC(=O)[C@H](CCCCN)NC(=O)[C@H](CCCCN)NC(=O)[C@H](CC(C)C)NC(=O)[C@H](CCCNC(=N)N)NC(=O)[C@H](Cc1ccccc1)NC(=O)[C@@H](NC(=O)[C@H](CCCNC(=N)N)NC(=O)[C@@H](N)CCCNC(=N)N)C(C)C)C(=O)N[C@@]1(C)CCCC=CCCC[C@@](C)(C(=O)N[C@@H](CCC(N)=O)C(=O)N[C@@H](Cc2ccccc2)C(=O)NCC(=O)N[C@@H](CCC(=O)O)C(=O)O)NC(=O)[C@H]([C@@H](C)CC)NC(=O)[C@H](C(C)C)NC(=O)[C@H](CCCCN)NC1=O [sRRVF18, RRVFRLKKWIX1KVIX2QFGE] (H-RRVFRLKKWI[S5]KVI[S5]QFGE-OH; staple 11-15)",49.1 ± 4.9,<1,,,
"CC[C@H](C)[C@H](NC(=O)[C@H](Cc1c[nH]c2ccccc12)NC(=O)[C@H](CCCCN)NC(=O)[C@H](CCCCN)NC(=O)[C@@H](N)CC(C)C)C(=O)N[C@@]1(C)CCCC=CCCC[C@@](C)(C(=O)N[C@@H](CCC(N)=O)C(=O)N[C@@H](Cc2ccccc2)C(=O)NCC(=O)N[C@@H](CCC(=O)O)C(=O)O)NC(=O)[C@H]([C@@H](C)CC)NC(=O)[C@H](C(C)C)NC(=O)[C@H](CCCCN)NC1=O [sLKK14, LKKWIX1KVIX2QFGE] (H-LKKWI[S5]KVI[S5]QFGE-OH; staple 6-10)",,,low hemolytic activity,,
